Assay results: patent US8548786B2, “Neuronal avalanche assay” (priority 2005, dated 2013)
Counter-ions that a name gives are not always drawn.

Key:
[1] = test system: organotypic cortex-VTA cultures; experiment: γ-oscillations and neuronal avalanches in organotypic cortex-VTA co-cultures; assay type: cell-based, rat
Protocol: Cortical extracellular neuronal activity was recorded in organotypic cortex-VTA cultures using 8×8 multielectrode arrays (FIG. 17A). The activity in the cortical tissue started as isolated single unit activity, which later formed bursts of multi-unit activity in the form of oscillations (FIG. 17B). […] The appearance of oscillatory activity ranged from closely placed isolated LFPs to frank sinusoidal waves lasting from 50 ms to 500 ms. […] LFP amplitudes varied from −10 μV to −1200 μV (mean=−38.2±3.4 μV) and varied between cultures −10.68±0.53 μV to −223.6±19.25 μV (mean high value).
Organotypic co-cultures were prepared from the frontal cortex (EC) and ventral-tegmental area (VTA) isolated from postnatal day 1-2 (PND) old rats. The VTA slices were cut at a thickness of 500 μm and cortex at 350 μm. The culture was done with cortex placed on multielectrode arrays (Multichannel Systems, Reutlingen, Germany) with electrode diameter of 30 μm and interelectrode distance of 200 μm. Cultivation and recording was done in a sterile chamber on the microelectrode array as described above. The culture was kept within the incubator with the rocking movement (˜0.005 Hz) throughout the recording. Spontaneous extracellular signals were recorded at a sampling frequency of 4 kHz with 1 kHz low pass filtering continuously for an average of 4±1 hrs. The temperature inside incubator was maintained at 35±0.5° C.
Neuronal oscillatory activity was analyzed by calculating the power spectrum from periods of prominent LFP activity, i.e. LFP bursts using a discrete Fast Fourier Transform in Matlab (Mathworks). Periods of prominent LFP activity were identified by negative threshold crossing at −3 SD from electrode noise. When calculating the average power spectrum for an activity period on the array, the duration for selecting activity periods was taken as the average duration of individual oscillatory activity in each recording session. While taking activity regions care was taken to avoid recalculation of spectra from the same time period in same electrode. The power spectrum of noise for each electrode was separately calculated from 20 separate recording regions where no activity was present and the power in the noise was subtracted from that in the signal. The selected signal region was filtered with a Hanning window (a cosine window defined by: w(k+1)=0.5*(1−cos(2*pi*(k/(n−1)))), k=0, 1, 2 . . . n−1) before calculating the power spectrum. The power spectrum of each activity period was calculated and averaged from all the active electrodes in each activity period. Then the power spectrum was averaged over the entire 4 hr recording.
To test the hypothesis, that neuronal avalanches might persist in the presence of oscillatory activity, the signals from all channels were analyzed for LFPs occurring with a peak 3×SD above noise (FIG. 19). This yielded a raster with time of occurrence and peak amplitude of LFPs (FIGS. 19B,C). The data was binned at Δtavg obtained from cross correlation analysis. […] Plotting the probability of occurrence of avalanches of different sizes against avalanches in log-log coordinates of different sizes yielded a curve with slope α=−1.5 (FIGS. 19D,E; mean=−1.53±0.02, n=9).
About 3 μl of the stock solution was added to the ˜600 μl of culture media in the multielectrode array chamber to reach a final concentration of 10 μM. […] The concentration of DMSO in the working solution was limited to 0.01%. Each addition of the drug was followed by 4 hours of continuous recording, after which the culture was washed by replacing the culture medium with 50% of conditioned media (collected from the same culture the day before drug application) and 50% of fresh, unconditioned medium, followed by 4-8 hrs of recording.

[2] = test system: acute slices of rat medial prefrontal cortex (mPFC); experiment: Neuronal avalanche (NAS) assay, microelectrode array LFP recording in acute mPFC slices;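 note: 60-electrode array recordings, low-pass filtered at 200 Hz and sampled at 1 kHz, nLFPs detected below −3 SD of electrode noise, avalanches as runs of active bins between silent bins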
Protocol: Continuous extracellular signals v(t) can be recorded between 0.1 Hz and 3000 Hz, low-pass filtered at 200 Hz (Butterfly-filter, Multichannel Systems), digitised at a rate of 1 kHz (Δt=1 ms) and stored. For each electrode k (k=[1, nelec], nelec=60), the electrode noise of v(t) can be estimated by calculating the mean and standard deviation (SD) of v(t) from the total duration of the recording, Ttot, which can range, for example, between 40-60 min. […] Negative LFP peaks (nLFPs) at electrode k can be detected by negative threshold crossing at −3 SD of electrode noise and can be characterized by the time and absolute amplitude of the negative LFP peak, A^k(ti), before v(t) returned to threshold. More precisely, at a given temporal resolution Δt, nLFPs at electrode k can be represented by a vector of length nmax, where nmax is an integer value for which Ttot=nmax·Δt. This vector can contain zeros, except for positions ti=i·Δt, iε[1, . . . , nmax,] with values A^k(ti) in μV.
A neuronal avalanche is a sequence of consecutive time bins of width Δt with at least one nLFP, which is preceded and terminated by at least one time bin with no activity (FIG. 3A). The absence of activity for a period of Δt thus indicates the end of an avalanche. If the decision of whether an avalanche has ended is made too early (Δt too short), avalanches will be terminated prematurely; if the Δt chosen is too long, avalanches will be falsely concatenated. If avalanches did simply propagate like a wave, an approximation for Δt (Δtavg) could be obtained by averaging the time between one nLFP at one electrode and the next nLFP at neighbouring electrodes only. Because nLFPs in avalanches occur in irregular patterns across electrodes on the array, a pair wise approximation can be used in order to assess the average time that is required for nLFPs to propagate between electrodes.
In order to calculate Δtavg, the distribution of time intervals T for successive nLFPs on the array can be obtained. Starting with the first nLFP, e.g. A^k(ti) on electrode k at time ti, the next occurrence of an nLFP on the array can be searched for, e.g. A^l(tj) on electrode l at time tj, and calculated the time interval Tm-Δt^k,l, where m=(tj−ti)/Δt. This process can be repeated for all occurrences of nLFPs on electrode k and for all electrodes. The resulting values can be combined into one density distribution P(TmΔt), which captures how often successive nLFPs occurred with a particular delay m·Δt on the array irrespective of their spatial location. Consequently, the average value of T provides an approximation for Δtavg, the average time to wait before making a decision whether an nLFP propagated on the array. However, this interval distribution is highly skewed, particularly when one compares the last nLFP with the first nLFP in successive avalanches that are separated by long times. In order to exclude time intervals from successive nLFPs that are barely correlated, a cut-off time τmax can be calculated for which the average crosscorrelation function (ccf) for pair wise electrode comparisons Rccf(τ) had decayed to negligible values. The ccf between electrodes k, l (Rccf^k,l(τ)) can be calculated as
Because the exemplary maximal sampling rate was 1 kHz, the actual Δt^avg to calculate avalanches can be taken as the nearest multiple of Δt=1 ms. In short, after Δtavg was calculated for a particular network and experimental condition, the extracellular signals v(t) can be re-sampled at the new temporal resolution of Δtavg. Time and amplitude of nLFP peaks can be extracted as A^k(ti), where ti=i·Δtavg, iε[1, n′max] and Ttot=n′max·Δtavg. Avalanches can be determined on the downsampled data set at bin width Δtavg.
Avalanche sizes can be calculated in two different ways (see also FIG. 3A).

[3] = test system: organotypic cortex cultures; experiment: Neuronal avalanche assay in organotypic cortex slice cultures on microelectrode arrays; assay type: cell-based, rat
Protocol: Organotypic cultures from slices of rat cortex were prepared in accordance with NIH guidelines. Coronal sections from rat brains (Sprague Dawley, Taconic Farms, Md., USA) at postnatal day 0-2 were cut at 350 μm thickness. A coronal slice section containing dorsal or dorsolateral cortex (˜1.5 mm deep and ˜2-3 mm wide) was positioned on a multi-electrode array (Multichannelsystems, Reutlingen, Germany). The array covered ˜50-70% of the cortical tissue with the bottom row aligned to infragranular layers and the upper rows extending beyond layer I. This arrangement allowed for the dorsal expansion of the cortical slice on the multielectrode array, which results from the development of superficial layers during the first weeks postnatal in rat cortex. The slices were attached to the pre-cleaned, poly-D-lysine coated multielectrode array-surface by coagulation with 15 μl chicken plasma and 15 μl of bovine thrombin (Sigma St. Louis, Mo., USA), after which cultures were grown at 35.5° C. in normal atmosphere in a culture medium consisting of 50% Basal Medium Eagle, 25% Hanks Balanced Salt Solution and 25% horse serum, 0.5% glucose, and 0.5 mM L-glutamine (all Gibco, Grand Island, N.Y., USA). Photographs taken at 1-3 DIV and after recording sessions confirmed the position of recording electrodes in the cortical tissue and organotypic cortex slice culture.
A custom-built incubator was used in order to allow for long-term pharmacological experiments and repetitive, sterile recording sessions at different developmental stages under identical recording and culturing conditions. The chamber design and preparation of the multielectrode array for recordings has been described in more detail previously. In short, each multielectrode array consisted of a square glass plate (5×5 cm, 1 mm thickness) with a square array of 60 microelectrodes made of titanium nitride (8×8 grid with the corners missing) at its center (Egert et al., 1998). Titanium nitride electrodes were flat and disk-shaped with a diameter of 30 μm, an inter electrode spacing of 200 μm, and were attached to gold leads that ended at the edge of the glass square and served as contacts for the amplifier head stage. A circular glass well (˜10 mm diameter) with a Teflon cap was centered and cured to the glass plate by Sylgard® functioned as a tight-sealed, sterile culture chamber.
Multielectrode arrays were placed onto storage trays inside the incubator and gently rocked. The temperature inside incubator was maintained at 35±0.5° C. For optimal culture survival and culture growth a rocking trajectory was used that approximated a sinusoidal function (˜400 s cycle time) with brief halts of ˜10 s at the steepest angle before reversing directions. At the points of direction reversal, cultures were exposed to the inner chamber atmosphere. […] After 3 and 27 days in vitro (DIV), […] of mitosis inhibitor was added for 24 hr ([…]; calculated to final concentration; all Sigma). Medium was changed every 3-5 days. No antibiotics were used throughout cultivation and recording periods.
For recordings, individual multielectrode arrays were placed into the recording head stage (MultiChannelSystems, Inc.), which was affixed to a second tray within the incubator and had the exact same motion as the primary storage tray. This allowed recording in culture medium under conditions identical to growth conditions. The exchange between recording and storage location for each multielectrode array took few seconds and was done without interruption of the rocking cycle. Activity occurred spontaneously in organotypic cortex cultures and was recorded up to 5 hrs giving rise to >10,000 avalanches per network.
Overall, negative local field potentials (nLFPs) occurred at 82±5% of the electrodes in the acute slices and 88±5% of the electrodes in cultures. Data was sampled at 1 kHz and low pass filtered at 50 Hz. […]

[4] = test system: organotypic cortex-VTA cultures; experiment: γ-oscillations and neuronal avalanches in organotypic cortex-VTA co-cultures; assay type: cell-based, rat; remark: listed apart in the source
[5] = similar for each dopamine concentration, + 3 μM NMDA, n=26 slices

**Q.** What does the source list for CN1CCc2cc(Cl)c(O)cc2[C@@H](c2ccccc2)C1 (racemic) [SCH23390, R(±)-7-chloro-8-hydroxy-3-methyl-1-phenyl-2,3,4,5-tetrahydro-1H-3-benzazepine hydrochloride]?
**A.** shift of peak frequency in the high frequency band from its original value ([1]; SCH23390 10 μM): 59±1%; reduction of power of dominant frequencies between 40-120 Hz ([1]; SCH23390 10 μM, n=5): more than 50%; slope α of avalanche size distribution ([1]; SCH23390 10 μM, n=5): −1.60±0.04; slope αLFP for washout of antagonist ([2]; after washout of 10 μM SCH23390, 30 μM dopamine + 3 μM NMDA): −1.55±0.06

**Q.** CN1CCN(C2=Nc3cc(Cl)ccc3Nc3ccccc32)CC1 [Clozapine, clozapine] was tested. Which “network state of induced avalanche dynamics” value ([2]; clozapine 100 nM) did it give?
**A.** epileptic

**Q.** And the “slope αele of avalanche size distribution” value ([2]; clozapine 100 nM)?
**A.** −2.07±0.08

**Q.** And the “ΔPmax (likelihood of large avalanches beyond linear regression)” value ([2]; clozapine 100 nM)?
**A.** 0.006

**Q.** What about the “total duration of induced LFP activity” value ([2]; clozapine 100 nM bath-applied) of the same compound?
**A.** ~40 min

**Q.** What about the “initial slope αLFP of avalanche size distribution” value ([2]; clozapine 100 nM, Δtavg=1 ms, range 5-60 μV) of the same compound?
**A.** −2.00±0.13

**Q.** For O=[N+]([O-])c1cc2nc(O)c(O)nc2cc1[N+](=O)[O-] [DNQX], which “slope α of avalanche size distribution” value ([3]; DNQX 3 μM bath-applied, 6 cortical cultures, control −1.5) is on record?
**A.** ~−2

**Q.** Which “nLFP and avalanche activity induced by NMDA alone” value ([2]; 3 μM NMDA alone in the presence of 10 μM SCH23390, n=7) does the source give for CN[C@H](CC(=O)O)C(=O)O [NMDA, N-Methyl-D-Aspartate] here?
**A.** negligible nLFP and avalanche activity

**Q.** Which results are given for CN1[C@@H]2CC[C@H]1C[C@@H](OC(=O)C(CO)c1ccccc1)C2 (stereo partly drawn) [atropine]?
**A.** neuronal avalanche induction with muscarinergic receptors blocked ([2]; atropine 10 μM + 3 μM NMDA + 3 μM SKF38393): did not block neuronal avalanche induction; power law slope αLFP with muscarinergic receptors blocked ([2]; atropine 10 μM + 3 μM NMDA + 3 μM SKF38393, n=6): −1.696±0.045

**Q.** What does the source list for NCCc1ccc(O)c(O)c1 [dopamine]?
**A.** maximal area sele within the power law regime ([2]; 30 μM dopamine + 3 μM NMDA): ~18 electrodes; optimal bin width Δtavg ([2]; 30 μM dopamine + 3 μM NMDA): 2.7 ± 0.2 ms; slope αLFP of avalanche size distribution (summed nLFP amplitudes) ([2]; 30 μM dopamine + 3 μM NMDA bath-applied, sLFP=6-300 μV): −1.50±0.03; τmax for which Rccf dropped below 10^−4 ([2]; 30 μM dopamine + 3 μM NMDA, all n=6 slices): 60 ms; cortical layer localisation of induced avalanche activity ([2]; 30 μM dopamine + 3 μM NMDA, cortical depth 200-900 μm): strongest in superficial layers II/III; propagation velocity for nLFPs on the array ([2]; 30 μM dopamine + 3 μM NMDA, inter-electrode distance 200 μm): ~74 mm/s; slope αele of avalanche size distribution (number of active electrodes) ([2]; 30 μM dopamine + 3 μM NMDA, sele=1-18 electrodes): −1.47±0.03; increase in likelihood of family recurrence beyond chance level ([2]; 30 μM dopamine in the presence of 3 μM NMDA): ~500%; Δtavg, average for all dopamine concentrations ([2]; all dopamine concentrations tested + 3 μM NMDA, n=26 experiments): 2.7 ± 0.1 ms; mean nLFP peak, rate of nLFPs per electrode and total activity Atot, dependence on dopamine concentration ([2]; dopamine + 3 μM NMDA, inverted-U profile): maximal at moderate concentration of dopamine (30 μM); slope α of cluster size distribution ([2]; dopamine concentrations lower or higher than 30 μM, + 3 μM NMDA): ~−2; duration of spontaneous activity [2, 5]: 43 ± 3 min; number of active electrodes [2, 5]: 33±4 electrodes

**Q.** Which results are given for CCN1CCCC1CNC(=O)c1cc(S(N)(=O)=O)ccc1OC (stereo not drawn) [sulpiride]?
**A.** change in γ frequency ([1]; sulpiride 10 μM): without a change in frequency; change of power of γ-activity ([1]; sulpiride 10 μM, n=5): doubled; slope α of avalanche size distribution ([1]; sulpiride 10 μM, n=5): −1.37±0.02

**Q.** picrotoxin was tested. Which “initial slope α of avalanche size distribution” value ([3]; picrotoxin 3 μM (FIG. 24C legend)) did it give?
**A.** ~−2

**Q.** And the “over-representation of large avalanches, epileptic vs sub-critical state” value ([3]; picrotoxin 3 μM vs DNQX 3 μM)?
**A.** ~10 times

**Q.** And the “decrease in average rate of spontaneous nLFPs” value ([3]; picrotoxin 5 μM, N=4 cultures)?
**A.** 80±23%

**Q.** What about the “increase of deviations in nLFP waveforms relative to initial nLFP” value ([3]; picrotoxin 5 μM, first time step) of the same compound?
**A.** ~3.5 fold

**Q.** What about the “probability of nLFP being larger than nLFP in the preceding time step” value ([3]; picrotoxin 5 μM, normal conditions 0.5) of the same compound?
**A.** ~0.58

**Q.** And the “increase of deviations in nLFP waveforms relative to initial nLFP” value ([3]; picrotoxin 5 μM, within 8 time steps)?
**A.** ~6 fold

**Q.** And the “initial slope α of avalanche size distribution” value ([3]; picrotoxin 2-3 μM)?
**A.** −1.8

**Q.** And the “shape of avalanche size distribution” value ([3]; picrotoxin 2-3 μM)?
**A.** bimodal distribution

**Q.** What about the “average burst duration in the network” value ([1]; picrotoxin, n=3 cultures) of the same compound?
**A.** increases the average burst duration

**Q.** And the “power in the δ/θ-frequency range” value ([1]; picrotoxin, single culture)?
**A.** increases the power in the δ/θ-frequency range

**Q.** And the “shape of avalanche size distribution” value ([4]; picrotoxin 5 μM)?
**A.** almost bimodal

**Q.** What about the “reduction of γ-oscillations” value ([4]; picrotoxin 5 μM bath-applied) of the same compound?
**A.** more than 50%

**Q.** And the “nLFP and avalanche activity after adding GABAA antagonist” value ([2]; 10 μM picrotoxin added to activity sustained by 30 μM dopamine + 3 μM NMDA)?
**A.** ceased

**Q.** And the “maximal time difference between correlated electrodes τmax” value ([2]; picrotoxin alone 10 μM)?
**A.** 30.5±7.2

**Q.** And the Δtavg ([2]; picrotoxin alone 10 μM)?
**A.** 2.3±0.2

**Q.** What about the avalanche rate ([2]; picrotoxin alone 10 μM, n=6) of the same compound?
**A.** 0.18±0.02 Hz

**Q.** And the “duration of spontaneous activity” value ([2]; picrotoxin alone 10 μM, n=6)?
**A.** 28 ± 2 min

**Q.** And the nLFP rate ([2]; picrotoxin alone 10 μM, n=6)?
**A.** 0.01±0.001 Hz

**Q.** And the “total activity Atot” value ([2]; picrotoxin alone 10 μM, n=6)?
**A.** 5033±719 μV

**Q.** What about the “initial slope αLFP of disinhibited activity” value ([2]; picrotoxin alone 10 μM, sLFP=15-85) of the same compound?
**A.** −1.9±0.08

**Q.** What about the “initial slope αele of disinhibited activity” value ([2]; picrotoxin alone 10 μM, sele=1-5) of the same compound?
**A.** −1.97±0.02

**Q.** What about the “spontaneous avalanche induction with co-applied GABAA antagonist” value ([2]; picrotoxin co-applied with 3 μM NMDA and 3 μM SKF38393, n=6) of the same compound?
**A.** prevented spontaneous avalanches induction altogether
